Measurements published in publication PMC8607422, “Development of a novel TLR8 agonist for cancer immunotherapy” (Molecular Biomedicine, 2020).
Like-named read-outs stand apart in the source and are kept apart here.

Legend:
Type in all cases: cell-based
[1] = target: T1, hTLR9 (Homo sapiens, UniProt Q9NR96); assay: HEK-Blue hTLR9 SEAP reporter agonist assay; conditions: HEK-Blue hTLR9 cells, highest concentration 50 μM
T1 construct: host or cells: HEK-Blue hTLR9
T1 sequence (Q9NR96 26-1032): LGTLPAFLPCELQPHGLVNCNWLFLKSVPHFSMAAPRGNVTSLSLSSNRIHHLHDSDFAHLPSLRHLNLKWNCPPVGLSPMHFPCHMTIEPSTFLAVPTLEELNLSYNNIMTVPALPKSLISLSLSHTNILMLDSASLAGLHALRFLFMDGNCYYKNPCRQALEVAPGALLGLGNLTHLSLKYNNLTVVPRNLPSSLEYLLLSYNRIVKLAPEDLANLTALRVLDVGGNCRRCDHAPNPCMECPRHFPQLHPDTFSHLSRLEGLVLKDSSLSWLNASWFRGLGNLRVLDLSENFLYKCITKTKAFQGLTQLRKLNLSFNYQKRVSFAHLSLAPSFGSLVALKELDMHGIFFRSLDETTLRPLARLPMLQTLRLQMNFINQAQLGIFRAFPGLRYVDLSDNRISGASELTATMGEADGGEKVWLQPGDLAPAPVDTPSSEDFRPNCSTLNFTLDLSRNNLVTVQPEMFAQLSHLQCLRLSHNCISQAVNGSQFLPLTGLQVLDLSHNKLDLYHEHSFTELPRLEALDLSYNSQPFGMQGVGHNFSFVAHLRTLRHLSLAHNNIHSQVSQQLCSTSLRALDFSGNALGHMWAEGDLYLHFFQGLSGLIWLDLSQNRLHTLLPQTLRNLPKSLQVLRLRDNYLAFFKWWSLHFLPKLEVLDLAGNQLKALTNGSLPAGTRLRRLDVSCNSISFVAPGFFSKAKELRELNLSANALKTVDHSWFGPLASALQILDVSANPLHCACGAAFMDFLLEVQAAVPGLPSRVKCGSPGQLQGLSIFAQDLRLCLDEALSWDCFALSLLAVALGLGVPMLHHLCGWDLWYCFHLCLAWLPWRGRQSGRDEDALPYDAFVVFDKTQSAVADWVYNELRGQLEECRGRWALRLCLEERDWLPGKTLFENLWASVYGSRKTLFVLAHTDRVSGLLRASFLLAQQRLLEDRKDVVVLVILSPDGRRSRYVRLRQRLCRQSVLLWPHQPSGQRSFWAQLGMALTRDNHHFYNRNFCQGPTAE
Description: (§1) HEK-Blue™ hTLR4, 7, 8 and 9 cell lines were purchased from InvivoGen (Hong Kong). The cells express the human TLR gene and NF-κB/AP-1-inducible SEAP (secreted embryonic alkaline phosphatase) reporter gene. SEAP levels produced upon TLR stimulation can be determined by QUANTI-Blue™. In the cell-based assay, the main reagents used were QUANTI-Blue™ (InvivoGen) and ATPlite 1 Step (Perkin Elmer). The main instruments used were the microplate reader SpectraMax 340PC (Molecular Device) and Envision (Perkin Elmer). Motolimod and DN052 were synthesized in house. […] The compounds were in 10 mM stock solution in DMSO and stored at − 20°C. The compounds were serially diluted in the concentration range from 0.5 nM to 15 μM (up to 50 μM in the hTLR4, hTLR7 and hTLR9 assays) and added to 96-well plates. DMSO was used as the negative control. LPS-EK, R848, motolimod and ODN2006 were used as the positive control for TLR4, 7, 8 and 9, respectively. The cells were cultured and treated with the compounds at 37°C, 5%CO2 for 24 h. […] After 1.5 h of incubation, the optical density was measured using the spectrophotometer at 650 nm in the microplate reader of SpectraMax 340PC. The cell viability of each well was determined using ATPlite 1 Step following the manufacturer’s instruction. The luminescence signal in each well of plates was measured in the microplate reader of Envision.

[2] = Cell viability (ATPlite 1 Step) cytotoxicity assay; conditions: human, HEK-Blue hTLR7 and hTLR8 cells
Description: as §1

[3] = test system: human peripheral blood mononuclear cells (PBMCs); assay: Ex vivo human PBMC cytokine induction assay; conditions: 24 h
Experimental: Briefly, PBMCs were isolated from fresh human blood (Chempartner, Shanghai, China). 2 × 10^5/100 μL/well hPBMCs were plated on 96-well cell culture plates. Serial dilutions of compounds with concentration range from 2 nM to 30 μM were added in duplicate wells. LPS was included as a control. The plate was incubated in a 37°C, 5% CO2 incubator for 24 h. The supernatant was harvested for cytokine detection using MILLIPLEX MAP Human Cytokine/Chemokine Magnetic Bead Panel - Immunology Multiplex Assay (Millipore) following the manufacturer’s protocol. Cytokines including TNF-α, IFN-α2, IL-1α, IL-1β, IL-6, IL-8, IL-10, IL-12p40, IL-12p70, MIP-1α, MIP-1β, G-CSF and IFN-γ were measured.

With `CCCN(CCC)C(=O)C1=Cc2ccc(-c3ccc(C(=O)N4CCCC4)cc3)cc2N=C(N)C1` [Motolimod, motolimod] the EC50 [1] was over 50 µM, the CC50 at 24 h [2] was over 50 µM and the EC50 ([3]; Donor 1, 24 h, read-out: EC50 G-CSF induction) was 0.841 µM. It also gave an EC50 ([3]; Donor 1, 24 h, read-out: EC50 IFN-α2 induction) of 1.33 µM, an EC50 ([3]; Donor 1, 24 h, read-out: EC50 IFN-γ induction) of 4.16 µM and an EC50 ([3]; Donor 1, 24 h, read-out: EC50 IL-1α induction) of 0.849 µM. For the same compound, the EC50 ([3]; Donor 1, 24 h, read-out: EC50 IL-1β induction) was 0.665 µM, the EC50 ([3]; Donor 1, 24 h, read-out: EC50 IL-6 induction) was 0.424 µM and the EC50 ([3]; Donor 1, 24 h, read-out: EC50 IL-8 induction) was 0.504 µM. The EC50 ([3]; Donor 1, 24 h, read-out: EC50 IL-10 induction) was 0.304 µM, the EC50 ([3]; Donor 1, 24 h, read-out: EC50 IL-12(p40) induction) was 0.447 µM and the EC50 ([3]; Donor 1, 24 h, read-out: EC50 IL-12(p70) induction) was 0.285 µM. It also gave an EC50 ([3]; Donor 1, 24 h, read-out: EC50 MIP-1α induction) of 0.277 µM, an EC50 ([3]; Donor 1, 24 h, read-out: EC50 MIP-1β induction) of 0.277 µM and an EC50 ([3]; Donor 1, 24 h, read-out: EC50 TNF-α induction) of 0.321 µM. It also gave an EC50 ([3]; Donor 2, 24 h, read-out: EC50 G-CSF induction) of 0.461 µM, an EC50 ([3]; Donor 2, 24 h, read-out: EC50 IFN-α2 induction) of 0.344 µM and an EC50 ([3]; Donor 2, 24 h, read-out: EC50 IFN-γ induction) of 1.66 µM. For the same compound, the EC50 ([3]; Donor 2, 24 h, read-out: EC50 IL-1α induction) was 0.348 µM, the EC50 ([3]; Donor 2, 24 h, read-out: EC50 IL-1β induction) was 0.556 µM and the EC50 ([3]; Donor 2, 24 h, read-out: EC50 IL-6 induction) was 0.439 µM. The EC50 ([3]; Donor 2, 24 h, read-out: EC50 IL-8 induction) was 0.502 µM, the EC50 ([3]; Donor 2, 24 h, read-out: EC50 IL-10 induction) was 0.191 µM and the EC50 ([3]; Donor 2, 24 h, read-out: EC50 IL-12(p40) induction) was 0.344 µM. The EC50 ([3]; Donor 2, 24 h, read-out: EC50 IL-12(p70) induction) was over 30 µM, the EC50 ([3]; Donor 2, 24 h, read-out: EC50 MIP-1α induction) was 0.208 µM and the EC50 ([3]; Donor 2, 24 h, read-out: EC50 MIP-1β induction) was 0.248 µM. It also gave an EC50 ([3]; Donor 2, 24 h, read-out: EC50 TNF-α induction) of 0.317 µM.
